Laboratory results published in BindingDB's records for doi:10.1016/j.bmc.2010.11.049 (Bryn Mawr College, 2011).

Assay: Inhibition of HIV1 YU2 gp120 binding to CD4 expressing Cf2Th-CD4/CCR5 cells assessed as inhibition of viral infection after 48 hrs

`O=C(NCCc1cnc[nH]1)Nc1ccc(Cl)c(Cl)c1` [1-(2-(1H-imidazol-5-yl)ethyl)-3-(3,4-dichlorophenyl)urea] and `O=C(Nc1ccc2c(c1)C(=O)NC2=O)c1ccc(Cl)c(Cl)c1` [3,4-dichloro-N-(1,3-dioxoisoindolin-5-yl)benzamide] cannot be ordered by IC50: > 100 µM for the first, > 100 µM for the second.

`O=C(Nc1ccc(Cl)cc1)Nc1ncnc2nc[nH]c12` [1-(4-chlorophenyl)-3-(9H-purin-6-yl)urea] and `C[C@@H](Sc1nc(N)cc(=O)[nH]1)C(=O)Nc1ccc(Cl)cc1` [(R)-2-(6-amino-4-oxo-1,4-dihydropyrimidin-2-ylthio)-N-(4-chlorophenyl)propanamide] cannot be ordered by IC50: > 100 µM for the first, > 100 µM for the second.

`CC1(C)CC(=NNC(=O)c2[nH]nc3c2CCCC3)CC(C)(C)N1` [2,2,6,6-tetramethyl-4-(2-(4,5,6,7-tetrahydro-1H-indazole-3-carbonyl)hydrazono)piperidinium] and `CC1Sc2cc(C(=O)NC3CC(C)(C)NC(C)(C)C3)ccc2NC1=O` (configuration not stated) [2,2,6,6-tetramethyl-4-(2-methyl-3-oxo-3,4-dihydro-2H-benzo[b][1,4]thiazine-7-carboxamido)piperidinium] cannot be ordered by IC50: > 100 µM for the first, > 100 µM for the second.

`O=C(COc1ccc(Cl)cc1)Nc1cc(=O)[nH]c(=O)[nH]1` [2-(4-chlorophenoxy)-N-(2,6-dioxo-1,2,3,6-tetrahydropyrimidin-4-yl)acetamide] and `O=C(COc1ccc(Cl)cc1)Nc1ccc2[nH]c(=O)[nH]c2c1` [2-(4-chlorophenoxy)-N-(2-oxo-2,3-dihydro-1H-benzo[d]imidazol-5-yl)acetamide] cannot be ordered by IC50: > 100 µM for the first, > 100 µM for the second.

`Cc1ccc(N(C)C)cc1NC(=O)COc1ccc(Cl)cc1` [2-(4-chlorophenoxy)-N-(5-(dimethylamino)-2-methylphenyl)acetamide] and `Nc1ccc(C(=O)CC(=O)Nc2ccc(Cl)cc2)cc1` [3-(4-aminophenyl)-N-(4-chlorophenyl)-3-oxopropanamide] cannot be ordered by IC50: > 100 µM for the first, > 100 µM for the second.

`O=C(COC(=O)c1n[nH]c2ccccc12)Nc1ccc(Cl)cn1` [2-(5-chloropyridin-2-ylamino)-2-oxoethyl 1H-indazole-3-carboxylate] and `CC1(C)CC(NC(=O)C(=O)Nc2ccc(Cl)cc2OCc2ccccc2)CC(C)(C)N1` [N1-(2-(benzyloxy)-4-chlorophenyl)-N2-(2,2,6,6-tetramethylpiperidin-4-yl)oxalamide] cannot be ordered by IC50: > 100 µM for the first, > 100 µM for the second.

`O=C(CN1CCCCCC1)Nc1ccc(Br)cc1` [2-(azepan-1-yl)-N-(4-bromophenyl)acetamide] and `CCNC(=S)N1CCN(CC(=O)Nc2ccc(Br)cc2)CC1` [4-(2-(4-bromophenylamino)-2-oxoethyl)-N-ethylpiperazine-1-carbimidothioic acid] cannot be ordered by IC50: > 100 µM for the first, > 100 µM for the second.

`O=C(Nc1ccnc(=O)[nH]1)c1sc2cc(Cl)ccc2c1Cl` [3,6-dichloro-N-(2-oxo-1,2-dihydropyrimidin-4-yl)benzo[b]thiophene-2-carboxamide] and `C[C@H](Sc1nc(N)cc(N)n1)C(=O)Nc1ccc(Cl)cc1` [(S)-N-(4-chlorophenyl)-2-(4,6-diaminopyrimidin-2-ylthio)propanamide] cannot be ordered by IC50: > 100 µM for the first, > 100 µM for the second.

`CC1(C)CC(NC(=O)C(=O)Nc2ccc3cc[nH]c3c2)CC(C)(C)N1` [4-(2-(1H-indol-6-ylamino)-2-oxoacetamido)-2,2,6,6-tetramethylpiperidinium] and `CC(C)c1cccc(NC(=O)C(=O)NC2CC(C)(C)NC(C)(C)C2)c1` [N1-(3-isopropylphenyl)-N2-(2,2,6,6-tetramethylpiperidin-4-yl)oxalamide] cannot be ordered by IC50: > 100 µM for the first, > 100 µM for the second.

`CC1(C)CC(NC(=O)C(=O)NCCc2ccc(Cl)cc2)CC(C)(C)N1` [4-(2-(4-chlorophenethylamino)-2-oxoacetamido)-2,2,6,6-tetramethylpiperidinium] and `CC1(C)CC(NC(=O)C(=O)Nc2ccc(Cl)cc2Cl)CC(C)(C)N1` [N1-(2,4-dichlorophenyl)-N2-(2,2,6,6-tetramethylpiperidin-4-yl)oxalamide] cannot be ordered by IC50: > 100 µM for the first, > 100 µM for the second.

`CN1CCCN(C(=O)COc2ccc(Cl)cc2)CC1` [4-(2-(4-chlorophenoxy)acetyl)-1-methyl-1,4-diazepan-1-ium] and `C[C@H]1CCCN(CCC(=O)Nc2ccc(Cl)cc2)C1` [(3S)-1-(3-(4-chlorophenylamino)-3-oxopropyl)-3-methylpiperidinium] cannot be ordered by IC50: > 100 µM for the first, > 100 µM for the second.

`CN1CCC(NC(=O)Nc2ccc(Cl)cc2Cl)CC1` [4-(3-(2,4-dichlorophenyl)ureido)-1-methylpiperidinium] and `O=C(Nc1ccc(Cl)c(F)c1)C(=O)NC1CCN(C(=O)c2ccccc2)CC1` [N1-(1-benzoylpiperidin-4-yl)-N2-(4-chloro-3-fluorophenyl)oxalamide] cannot be ordered by IC50: > 100 µM for the first, > 100 µM for the second.

`C[C@@H]1CN(CCC(=O)Nc2ccc(Br)cc2)C[C@H](C)O1` [(2R,6S)-4-(3-(4-bromophenylamino)-3-oxopropyl)-2,6-dimethylmorpholin-4-ium] and `CCOC(=O)[C@H]1CCCN(CCC(=O)Nc2ccc(Br)cc2)C1` [(3S)-1-(3-(4-bromophenylamino)-3-oxopropyl)-3-(ethoxycarbonyl)piperidinium] cannot be ordered by IC50: > 100 µM for the first, > 100 µM for the second.

`O=C(NC[C@@H]1COC2(CCCC2)O1)C(=O)Nc1ccc(Cl)cc1` [(R)-N1-(1,4-dioxaspiro[4.4]nonan-2-ylmethyl)-N2-(4-chlorophenyl)oxalamide] and `CC1(C)OC(=O)N(CCC(=O)Nc2ccc(Cl)cc2)[C@@]1(C)O` [(S)-N-(4-chlorophenyl)-3-(4-hydroxy-4,5,5-trimethyl-2-oxooxazolidin-3-yl)propanamide] cannot be ordered by IC50: > 100 µM for the first, > 100 µM for the second.

Compared with `O=C(Nc1ccc(Cl)c(F)c1)C(=O)N[C@@H]1CCN(Cc2ccccc2)C1` [(R)-N1-(1-benzylpyrrolidin-3-yl)-N2-(4-chloro-3-fluorophenyl)oxalamide], `O=C(Nc1ccc(Cl)c(F)c1)C(=O)N[C@H]1CCN(Cc2ccccc2)C1` [(S)-N1-(1-benzylpyrrolidin-3-yl)-N2-(4-chloro-3-fluorophenyl)oxalamide] is higher in IC50: 58.5 µM for the first, > 100 µM for the second.

`CC1(C)NC(=O)N(C[C@H](O)COc2ccc(Cl)cc2)C1=O` [(S)-3-(3-(4-chlorophenoxy)-2-hydroxypropyl)-5,5-dimethylimidazolidine-2,4-dione] and `CC1(C)CC(NC(=O)C(=O)Nc2ccc(Cl)c(OCc3ccccc3)c2)CC(C)(C)N1` [N1-(3-(benzyloxy)-4-chlorophenyl)-N2-(2,2,6,6-tetramethylpiperidin-4-yl)oxalamide] cannot be ordered by IC50: > 100 µM for the first, > 100 µM for the second.

`COc1cccc(N[C@@H](C)C(=O)Nc2ccc(Br)cc2)c1` [(S)-N-(4-bromophenyl)-2-(3-methoxyphenylamino)propanamide] and `CC1(C)CC(NC(=O)C(=O)Nc2cccc(OCc3ccccc3)c2)CC(C)(C)N1` [N1-(3-(benzyloxy)phenyl)-N2-(2,2,6,6-tetramethylpiperidin-4-yl)oxalamide] cannot be ordered by IC50: > 100 µM for the first, > 100 µM for the second.

`CC1(C)CC(NC(=O)C(=O)Nc2c[nH]c3ncccc23)CC(C)(C)N1` [N1-(1H-pyrrolo[2,3-b]pyridin-3-yl)-N2-(2,2,6,6-tetramethylpiperidin-4-yl)oxalamide] and `CC(C)c1ccccc1NC(=O)C(=O)NC1CC(C)(C)NC(C)(C)C1` [N1-(2-isopropylphenyl)-N2-(2,2,6,6-tetramethylpiperidin-4-yl)oxalamide] cannot be ordered by IC50: > 100 µM for the first, > 100 µM for the second.

In the case of `CC1(C)CC(NC(=O)C(=O)Nc2ccc(-n3cc(CCCCCO)nn3)cc2)CC(C)(C)N1` [N1-(4-(4-(5-hydroxypentyl)-1H-1,2,3-triazol-1-yl)phenyl)-N2-(2,2,6,6-tetramethylpiperidin-4-yl)oxalamide], the IC50 is reported as > 100 µM.
